Among the test systems are SN12C renal; NCI-H226 lung; SK-MEL-28 melanoma; HCT-116 colon; HT29 colon; SF-539 CNS; TK-10 renal; CCRF-CEM leukemia; HCT-15 colon; SR leukemia.
Common to all, as to assay: NCI-60 cell line screen, 48 h

Each structure is given as a SMILES string. Where “and” joins values, the source holds several entries; their conditions need not be identical. Identical values can stand only once.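 Briefly, cells in 96-well plates were exposed to five compound concentrations for 48 h, and endpoints were estimated by linear interpolation. The concentration for 50% growth inhibition is given as GI50. The concentration for full growth arrest is given as TGI.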

Turning to `CN(CCNc1ccc(C(=N)N)cc1)c1ccc(C(=N)N)cc1`, the GI50 was 5.53 µM in the assay with SN12C renal; 3810 nM in the assay on NCI-H226 lung; 36.4 µM in the assay with SK-MEL-28 melanoma; over 100 µM with HCT-116 colon; 80.8 µM with HT29 colon; 35.1 µM in the assay on SF-539 CNS. Besides, the GI50 is 53.4 µM in the assay on TK-10 renal, 88.8 µM in the assay with CCRF-CEM leukemia, 31.2 µM in the assay with HCT-15 colon and 28.6 µM in the assay on SR leukemia. Also, the TGI with SN12C renal, in the assay on NCI-H226 lung, with SK-MEL-28 melanoma, with HCT-116 colon, in the assay with HT29 colon and in the assay with SF-539 CNS was over 100 µM throughout. Besides, the TGI in the assay with TK-10 renal, with CCRF-CEM leukemia, with HCT-15 colon and with SR leukemia was over 100 µM in each case.

Turning to `CC(C)[C@]12O[C@H]1[C@@H]1O[C@]13[C@]1(O[C@H]1C[C@H]1C4=C(CC[C@@]13C)C(=O)OC4)[C@@H]2OC(=O)OC(C)(C)C`, the GI50 is 0.0261 µM in the assay on SN12C renal; under 14.3 nM with NCI-H226 lung; 0.0176 µM in the assay on SK-MEL-28 melanoma; under 0.0107 µM in the assay with HCT-116 colon; under 0.0121 µM with HT29 colon; 0.0217 µM with SF-539 CNS. For the same compound, the GI50 in the assay with TK-10 renal was 0.0329 µM; with CCRF-CEM leukemia, 0.0377 µM; in the assay on HCT-15 colon, 0.0253 µM; in the assay with SR leukemia it was 0.0159 µM. Moreover, the TGI with SN12C renal is over 100 µM; in the assay with NCI-H226 lung it was 0.173 µM; with HCT-116 colon, over 100 µM; in the assay on SF-539 CNS, 0.294 µM; in the assay with TK-10 renal, over 100 µM; in the assay on CCRF-CEM leukemia it was over 100 µM. Also, in the assay on HCT-15 colon, the TGI is over 100 µM.

For the compound `O=C(NCCNc1nccc(-c2c(-c3ccc(F)cc3)nc3sccn23)n1)Nc1cccc(C(F)(F)F)c1`, the GI50 in the assay on SN12C renal was 6.42 µM; with NCI-H226 lung it was 2380 nM; in the assay with SK-MEL-28 melanoma, 7.76 µM; in the assay on HCT-116 colon it was 5.47 µM; in the assay with HT29 colon, 6.44 µM; in the assay with SF-539 CNS, 11.5 µM. The GI50 is 10.5 µM in the assay with TK-10 renal, 3.14 µM in the assay with CCRF-CEM leukemia, 4.22 µM with HCT-15 colon and 5.4 µM in the assay with SR leukemia. Further, the TGI worked out at 22.7 µM in the assay with SN12C renal; 10.6 µM with NCI-H226 lung; 20.9 µM with SK-MEL-28 melanoma; 18.9 µM in the assay on HCT-116 colon; 28 µM in the assay on HT29 colon; 26.7 µM in the assay with SF-539 CNS. Moreover, the TGI in the assay with TK-10 renal was 36.2 µM; in the assay with CCRF-CEM leukemia it was 30.1 µM; with HCT-15 colon, 47.9 µM; in the assay with SR leukemia it was 55.3 µM.

Take `CN1C(=O)CNS1(=O)=O`: the TGI in the assay with SN12C renal, in the assay on NCI-H226 lung, with SK-MEL-28 melanoma, with HCT-116 colon, with HT29 colon and in the assay with SF-539 CNS was over 100 µM each time. The TGI with TK-10 renal, in the assay on CCRF-CEM leukemia, with HCT-15 colon and in the assay on SR leukemia was over 100 µM each time.

As for `CCN1C2=C(SC(=S)C1=C1SC(C(=O)c3ccccc3)=C(C(=O)c3ccccc3)S1)SC(=Nc1ccccc1)C2=O`, the GI50 with SN12C renal was 46 µM; in the assay with NCI-H226 lung, 25700 nM; in the assay on SK-MEL-28 melanoma, 26.4 µM; in the assay with HCT-116 colon, 2.66 µM; with HT29 colon, 16.5 µM; with SF-539 CNS, 14.4 µM. In addition, the GI50 with TK-10 renal was 13.3 µM; with CCRF-CEM leukemia, 0.633 µM; in the assay with HCT-15 colon, over 100 µM; in the assay with SR leukemia, 3.19 µM. The TGI in the assay on SN12C renal was over 100 µM; with NCI-H226 lung it was over 100 µM; with SK-MEL-28 melanoma, over 100 µM; in the assay on HCT-116 colon, 38.7 µM; in the assay on HT29 colon it was over 100 µM; in the assay on SF-539 CNS, over 100 µM. Moreover, the TGI in the assay on TK-10 renal was over 83.7 µM; in the assay on CCRF-CEM leukemia it was over 100 µM; with HCT-15 colon it was over 100 µM; in the assay on SR leukemia it was over 100 µM.

With `COc1ncnn2ccc(-c3cnc4nc(C)n(Cc5nnc(C(C)F)o5)c4c3)c12` (stereo unspecified), the GI50 in the assay on SN12C renal is 0.255 µM; in the assay on NCI-H226 lung, 156 nM; in the assay on SK-MEL-28 melanoma, 0.298 µM; in the assay on HCT-116 colon, 0.041 µM; in the assay on HT29 colon, 0.253 µM; in the assay on SF-539 CNS, 0.218 µM. For the same compound, the GI50 with TK-10 renal is 0.367 µM; in the assay on CCRF-CEM leukemia it was 0.11 µM; with HCT-15 colon, 0.199 µM; with SR leukemia, 0.156 µM. For the same compound, the TGI is over 58.1 µM in the assay on SN12C renal; 0.949 µM in the assay with NCI-H226 lung; 13.8 µM in the assay with SK-MEL-28 melanoma; over 100 µM in the assay on HCT-116 colon; 0.631 µM in the assay on HT29 colon; 0.674 µM with SF-539 CNS. Also, the TGI is over 100 µM in the assay on TK-10 renal, over 74.6 µM in the assay with CCRF-CEM leukemia and 16 µM in the assay with SR leukemia.

Turning to `CC(C)c1ccc2c(c1)CCC1C(C)(CN)CCCC21C` (stereo unspecified), the TGI in the assay with SN12C renal is 3.16 µM; with NCI-H226 lung, 3.4 µM; in the assay on SK-MEL-28 melanoma, 3.11 µM; in the assay with HCT-116 colon it was 2.93 µM; in the assay on HT29 colon, 2.39 µM; in the assay on SF-539 CNS, 3.36 µM. Further, the TGI was 3.08 µM in the assay on TK-10 renal, 3.92 µM in the assay on CCRF-CEM leukemia, 3.17 µM in the assay on HCT-15 colon and 2.99 µM with SR leukemia.

For the compound `COc1cccc(Nc2ncnn3ccc(CN4CC[C@@H](N)[C@H](O)C4)c23)c1`, the GI50 in the assay on SN12C renal was 0.265 µM and 0.304 µM; with NCI-H226 lung it was 2660 nM and 1380 nM; with SK-MEL-28 melanoma, 17 µM and > 5.4 µM; in the assay on HCT-116 colon, 6.69 µM and 2.55 µM; in the assay on HT29 colon, 8.67 µM and > 2.25 µM; with SF-539 CNS, 1.72 µM and 1.08 µM. The GI50 in the assay on TK-10 renal was 0.0322 µM and 0.0167 µM; in the assay with CCRF-CEM leukemia it was 25.2 µM and > 4.58 µM; in the assay on HCT-15 colon, 3.24 µM and 2.15 µM; with SR leukemia, 5.19 µM and > 4.99 µM. Moreover, the TGI is 18.5 µM and > 10 µM in the assay on SN12C renal; 13 µM and > 8.94 µM with NCI-H226 lung; 31.1 µM and > 10 µM in the assay on SK-MEL-28 melanoma; 26.4 µM and > 6.8 µM with HCT-116 colon; over 56.6 µM in the assay with HT29 colon; 13.5 µM and > 7.44 µM in the assay with SF-539 CNS. Also, the TGI was 1.65 µM and 1.5 µM in the assay on TK-10 renal; over 100 µM in the assay with CCRF-CEM leukemia; 97.9 µM and > 10 µM with HCT-15 colon; 40.7 µM and > 10 µM in the assay with SR leukemia.

Regarding `NS(=O)(=O)c1ccc(N=Nc2c(O)[nH]c3cccc(CCc4ccncc4)c23)cc1`, the GI50 in the assay with SN12C renal is over 25 µM; in the assay on NCI-H226 lung, over 25000 nM; with SK-MEL-28 melanoma, over 25 µM; with HCT-116 colon, over 25 µM; in the assay with HT29 colon it was over 25 µM; with SF-539 CNS, over 25 µM. The GI50 in the assay on TK-10 renal, in the assay with CCRF-CEM leukemia, in the assay on HCT-15 colon and with SR leukemia was over 25 µM each time. In addition, the TGI in the assay with SN12C renal, with NCI-H226 lung, in the assay with SK-MEL-28 melanoma, in the assay with HCT-116 colon, in the assay on HT29 colon and in the assay on SF-539 CNS was over 25 µM each time. Also, the TGI with TK-10 renal, in the assay with CCRF-CEM leukemia, with HCT-15 colon and in the assay with SR leukemia was over 25 µM each time.

Take `COc1c(O)cc2c(c1CC=C(C)C)OC(=O)c1c(cc(O)c(CC=C(C)C)c1O)O2`: the GI50 in the assay on SN12C renal is 3.67 µM; in the assay on NCI-H226 lung, 4510 nM; with SK-MEL-28 melanoma, 4.76 µM; in the assay on HCT-116 colon it was 3.91 µM; with HT29 colon, 4.39 µM; with SF-539 CNS it was 4.46 µM. Moreover, the GI50 in the assay with TK-10 renal was 5.49 µM; with CCRF-CEM leukemia, 7.63 µM; with HCT-15 colon it was 3.95 µM; with SR leukemia, 3.95 µM. Also, the TGI in the assay on SN12C renal came out at 7.37 µM; with NCI-H226 lung it was 8.86 µM; in the assay on SK-MEL-28 melanoma it was 9.52 µM; in the assay on HCT-116 colon, 7.82 µM; in the assay on HT29 colon it was 8.7 µM; in the assay on SF-539 CNS, 8.52 µM. Moreover, the TGI with TK-10 renal was 11.7 µM; in the assay with CCRF-CEM leukemia it was 25 µM; in the assay with HCT-15 colon it was 8.94 µM; in the assay on SR leukemia, 10.5 µM.

Regarding `CCCCN(CCCC)C(=O)C(=O)C(C(=O)C(=O)OC)c1nc2ccccc2o1` (stereo unspecified), the TGI in the assay with SN12C renal, in the assay on NCI-H226 lung, in the assay with SK-MEL-28 melanoma, in the assay with HCT-116 colon, in the assay on HT29 colon and with SF-539 CNS was over 100 µM in each case. Also, the TGI with TK-10 renal, with CCRF-CEM leukemia, with HCT-15 colon and with SR leukemia was over 100 µM throughout.

Regarding `O=C(CSc1nc(-c2ccccc2)c(-c2ccccc2)[nH]1)N/N=C/c1ccc([N+](=O)[O-])cc1`, the TGI with SN12C renal was 31.9 µM; with NCI-H226 lung, 32.8 µM; in the assay with SK-MEL-28 melanoma, 31.2 µM; in the assay on HCT-116 colon it was 32.7 µM; in the assay with HT29 colon it was 35.8 µM; in the assay on SF-539 CNS it was 29.9 µM. Besides, the TGI is 39.4 µM in the assay on TK-10 renal, 61.3 µM in the assay on CCRF-CEM leukemia, 28.1 µM in the assay with HCT-15 colon and over 100 µM in the assay on SR leukemia.

Regarding `N#CCC(=O)N/N=C(/C(=O)Nc1ccccc1)C1C(=O)N(c2ccccc2)N=C1N` (stereo unspecified), the TGI in the assay with SN12C renal, in the assay on NCI-H226 lung, with SK-MEL-28 melanoma, with HCT-116 colon, with HT29 colon and in the assay on SF-539 CNS was over 100 µM in each case. Besides, the TGI in the assay on TK-10 renal, in the assay on CCRF-CEM leukemia, in the assay on HCT-15 colon and with SR leukemia was over 100 µM each time.
